Active and inactive are the calls of the source.
Columns and labels:
[1] = target: T1, RNA-binding protein pos-1 (Caenorhabditis elegans, UniProt G5EF15); assay: disruptors of C. elegans POS-1 RNA interaction – biochemical, fluorescence polarization, dose response (AID 1964);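 further: purified POS-1 fused to maltose binding protein made in E. coli; potency of compounds blocking POS-1 binding to fluorescent RNA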
T1 sequence (G5EF15 whole entry): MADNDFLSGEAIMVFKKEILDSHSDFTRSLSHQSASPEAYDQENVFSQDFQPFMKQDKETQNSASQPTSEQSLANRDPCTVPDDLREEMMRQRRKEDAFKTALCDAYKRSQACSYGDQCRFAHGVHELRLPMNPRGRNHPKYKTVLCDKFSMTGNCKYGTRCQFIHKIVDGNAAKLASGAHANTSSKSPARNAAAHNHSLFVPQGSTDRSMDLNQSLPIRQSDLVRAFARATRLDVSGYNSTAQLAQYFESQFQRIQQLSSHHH

[2] = target: T2, Zinc finger protein mex-5 (Caenorhabditis elegans, UniProt Q9XUB2); assay: potency of MEX-5 RNA-binding blockers – biochemical, C. elegans, fluorescence polarization, dose response (AID 1960)
T2 sequence (Q9XUB2 whole entry): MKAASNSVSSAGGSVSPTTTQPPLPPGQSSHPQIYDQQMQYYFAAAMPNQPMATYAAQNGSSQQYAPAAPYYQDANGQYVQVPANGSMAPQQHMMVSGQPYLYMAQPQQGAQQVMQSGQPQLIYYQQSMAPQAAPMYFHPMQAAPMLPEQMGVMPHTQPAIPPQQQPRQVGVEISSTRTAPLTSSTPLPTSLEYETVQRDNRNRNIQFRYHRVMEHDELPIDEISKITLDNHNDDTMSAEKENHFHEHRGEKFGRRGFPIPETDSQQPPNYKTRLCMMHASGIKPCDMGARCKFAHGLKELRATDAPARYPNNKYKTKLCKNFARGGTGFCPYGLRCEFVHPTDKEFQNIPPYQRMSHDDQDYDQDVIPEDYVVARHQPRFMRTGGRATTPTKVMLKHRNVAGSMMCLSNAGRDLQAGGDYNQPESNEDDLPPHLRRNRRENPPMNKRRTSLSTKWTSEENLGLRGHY

Large T antigen = Large T antigen (Simian virus 40, UniProt P03070); assay type: functional, Betapolyomavirus macacae;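 further: Confirmatory-stage PubChem screen for compounds that inhibit SV40 T antigen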
[3] = target: Intestinal-type alkaline phosphatase (Mus musculus, UniProt P24822); assay: PubChem AID 488785; assay type: functional
[4] = target: T3, Alkaline phosphatase, tissue-nonspecific isozyme (Homo sapiens, UniProt P05186); assay: TNAP enzyme inhibition by screening hits, dose response, selectivity assay for mouse IAP inhibitor project, biochemical, human TNAP, uHTS hits (AID 488906); assay type: functional
T3 sequence (P05186 whole entry): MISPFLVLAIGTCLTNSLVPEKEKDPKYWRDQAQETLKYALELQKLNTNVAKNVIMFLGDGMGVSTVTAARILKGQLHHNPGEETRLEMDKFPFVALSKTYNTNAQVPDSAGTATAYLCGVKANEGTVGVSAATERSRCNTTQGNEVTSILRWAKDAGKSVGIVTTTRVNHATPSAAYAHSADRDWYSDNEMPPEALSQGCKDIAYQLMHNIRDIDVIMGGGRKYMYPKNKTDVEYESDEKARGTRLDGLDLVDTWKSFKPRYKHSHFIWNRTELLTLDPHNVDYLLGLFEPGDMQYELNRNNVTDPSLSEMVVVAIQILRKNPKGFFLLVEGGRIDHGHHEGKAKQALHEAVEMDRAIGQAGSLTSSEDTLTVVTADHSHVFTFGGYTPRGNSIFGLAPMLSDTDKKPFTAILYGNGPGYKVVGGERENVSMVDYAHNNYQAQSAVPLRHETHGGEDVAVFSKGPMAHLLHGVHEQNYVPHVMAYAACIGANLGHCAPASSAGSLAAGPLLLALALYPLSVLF

[5] = target: Intestinal-type alkaline phosphatase (Homo sapiens, UniProt P09923); assay: inhibition of human intestinal alkaline phosphatase – biochemical, dose response (AID 488876); assay type: functional
[6] = target: T4, Delta-type opioid receptor (Homo sapiens, UniProt P41143); assay: HTS Image-Based Screen for Antagonists of the DOR Receptor. [Related pubchem assays (depositor defined):AID1777, AID1785, AID1786, AID2133]; assay type: functional
Mu-type opioid receptor [7] = target: T5, Mu-type opioid receptor (Homo sapiens, UniProt P35372); assay: HTS Image-Based Screen for Agonists of the MOR Receptor. [Related pubchem assays (depositor defined):AID1777, AID1785, AID1786, AID2133]; assay type: functional
[8] = target: T4, Delta-type opioid receptor; assay: HTS Image-Based Screen for Agonists of the DOR Receptor. [Related pubchem assays (depositor defined):AID1777, AID1786, AID2133]; assay type: functional
[9] = target: T6, Kappa-type opioid receptor (Homo sapiens, UniProt P41145); assay type: functional
[10] = target: T6, Kappa-type opioid receptor; assay type: functional; remark: listed apart in the source
[11] = target: T6, Kappa-type opioid receptor; assay: SAR analysis of small molecule agonists of the kappa opioid receptor via a luminescent beta-arrestin assay. [Related pubchem assays (depositor defined):AID1777, AID1786, AID1966, AID2133, AID2136, AID2348, AID2352, AID2357, AID2359, AID2370, AID2420, AID2478, AID2491, AID2492, AID2493, AID2497, AID2498, AID2500, AID449737, AID488822, AID488842]; assay type: functional
Mu-type opioid receptor [12] = target: T5, Mu-type opioid receptor; assay: mu opioid receptor activators, image-based, SAR follow-up (AID 2352); assay type: functional
[13] = target: T4, Delta-type opioid receptor; assay: DOR agonists, SAR follow-up, image-based (AID 2370); assay type: functional
[14] = target: T6, Kappa-type opioid receptor; assay: kappa opioid receptor blockers, image-based, SAR follow-up (AID 2348); assay type: functional
Coagulation factor XII = target: T7, Coagulation factor XII (Homo sapiens, UniProt P00748); assay type: functional;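 further: activated factor XIIa alpha cleaving a fluorogenic AMC peptide substrate; inhibitor potency from loss of enzyme activity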
T7 sequence (P00748 whole entry): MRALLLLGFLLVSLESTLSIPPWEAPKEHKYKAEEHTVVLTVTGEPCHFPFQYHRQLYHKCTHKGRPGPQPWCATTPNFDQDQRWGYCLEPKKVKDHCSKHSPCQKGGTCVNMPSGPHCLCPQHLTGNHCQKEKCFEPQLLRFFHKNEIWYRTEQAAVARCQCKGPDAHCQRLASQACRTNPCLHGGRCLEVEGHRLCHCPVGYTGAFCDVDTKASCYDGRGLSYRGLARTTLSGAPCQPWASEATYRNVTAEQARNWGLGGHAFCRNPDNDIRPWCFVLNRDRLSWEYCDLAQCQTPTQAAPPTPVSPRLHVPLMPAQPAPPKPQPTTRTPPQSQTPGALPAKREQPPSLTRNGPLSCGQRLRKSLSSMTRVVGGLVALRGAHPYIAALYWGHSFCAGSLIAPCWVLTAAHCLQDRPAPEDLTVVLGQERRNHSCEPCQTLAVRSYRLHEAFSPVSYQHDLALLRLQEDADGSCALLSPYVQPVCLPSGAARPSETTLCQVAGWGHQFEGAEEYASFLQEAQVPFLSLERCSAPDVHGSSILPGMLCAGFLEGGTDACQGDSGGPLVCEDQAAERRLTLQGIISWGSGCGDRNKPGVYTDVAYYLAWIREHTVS

Mu-type opioid receptor [15] = target: T5, Mu-type opioid receptor; assay: mu opioid receptor blockers – image-based, SAR follow-up (AID 2420); assay type: functional;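 further: compounds added before stimulation of receptor with agonist DAMGO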
[16] = target: T6, Kappa-type opioid receptor; assay: kappa opioid receptor activation potency – imaging, image-based, SAR follow-up (AID 2359); assay type: functional
[17] = target: T4, Delta-type opioid receptor; assay: delta opioid receptor blockers – image-based, SAR follow-up (AID 2357); assay type: functional
[18] = target: T6, Kappa-type opioid receptor; assay: SAR analysis of small molecule agonists of the kappa opioid receptor via a luminescent beta-arrestin assay - Set 3. [Related pubchem assays (depositor defined):AID1777, AID1785, AID1786, AID1966, AID2133, AID2136, AID2284, AID2500]; assay type: functional
HEK293 = assay: Fluorescence-based counterscreen for potentiators or agonists of NPY-Y2: cell-based high-throughput dose response assay to identify inhibitors of cyclic nucleotide gated ion channel (CNGC) activity. In this assay, the parental HEK293 cell line transfected with a cyclic-nucleotide gated ion channel (CNGC)-based cAMP sensor is used to measure inhibition of isoproterenol-induced CNGC activity by test compound.; assay type: functional; conditions: Homo sapiens;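 further: stimulus is 1 µM isoproterenol at EC100 plus PDE inhibitor Ro 20-1724 at 25 µM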
[19] = target: T8, Runt-related transcription factor 1/Core-binding factor subunit beta (Homo sapiens, UniProt Q01196+Q13951); assay: disruptors of Runt domain/CBFb-SMMHC interaction – biochemical, FRET, Cerulean-Runt, Venus-CBFb-SMMHC, uHTS, […] (AID 1434); assay type: protein assay
[20] = target: T9, Neuropeptide Y receptor type 2 (Homo sapiens, UniProt P49146); assay: Fluorescence-based cell-based high-throughput dose response assay for agonists of NPY-Y2. [Related pubchem assays: 1703 (Screening assay (CNGC inhibitors).), 1359 (Screening assay (NPY-Y2 potentiators or agonists).), 1304 (Screening assay (NPY-Y1 potentiators or agonists).), 1710 (Screening assay (NPY-Y2 agonists).), 1791 (Summary AID.)]; assay type: functional
T9 sequence (P49146 whole entry): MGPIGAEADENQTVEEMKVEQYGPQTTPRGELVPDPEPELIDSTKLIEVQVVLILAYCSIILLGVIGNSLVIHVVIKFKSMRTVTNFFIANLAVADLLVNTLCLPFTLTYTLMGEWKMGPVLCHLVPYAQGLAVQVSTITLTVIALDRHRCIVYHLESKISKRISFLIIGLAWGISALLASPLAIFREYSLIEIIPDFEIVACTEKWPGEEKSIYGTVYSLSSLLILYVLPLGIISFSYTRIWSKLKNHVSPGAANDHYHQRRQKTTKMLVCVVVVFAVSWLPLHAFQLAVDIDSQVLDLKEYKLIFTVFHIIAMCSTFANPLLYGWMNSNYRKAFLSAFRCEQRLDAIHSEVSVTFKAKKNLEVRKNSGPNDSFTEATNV

[21] = target: T8, Runt-related transcription factor 1/Core-binding factor subunit beta; assay: Runt domain/CBFb-SMMHC interaction disruptors – biochemical, TR-FRET (AID 1438); assay type: protein assay
[22] = target: T10, Neuropeptide Y receptor type 1 (Homo sapiens, UniProt P25929); assay: Fluorescence-based counterscreen for agonists of NPY-Y2: cell-based high-throughput dose response assay for agonists of NPY-Y1.; assay type: functional
T10 sequence (P25929 whole entry): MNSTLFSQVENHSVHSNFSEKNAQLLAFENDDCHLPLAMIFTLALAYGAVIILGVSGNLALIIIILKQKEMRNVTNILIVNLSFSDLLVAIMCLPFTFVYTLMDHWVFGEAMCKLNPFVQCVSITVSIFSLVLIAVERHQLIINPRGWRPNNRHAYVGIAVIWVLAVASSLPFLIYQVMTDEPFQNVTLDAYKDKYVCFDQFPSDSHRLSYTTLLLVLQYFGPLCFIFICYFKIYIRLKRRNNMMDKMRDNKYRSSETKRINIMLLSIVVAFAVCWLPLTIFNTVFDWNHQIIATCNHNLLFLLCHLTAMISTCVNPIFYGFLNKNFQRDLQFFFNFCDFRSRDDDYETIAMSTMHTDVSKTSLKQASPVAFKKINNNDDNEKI

T6 sequence (P41145 whole entry): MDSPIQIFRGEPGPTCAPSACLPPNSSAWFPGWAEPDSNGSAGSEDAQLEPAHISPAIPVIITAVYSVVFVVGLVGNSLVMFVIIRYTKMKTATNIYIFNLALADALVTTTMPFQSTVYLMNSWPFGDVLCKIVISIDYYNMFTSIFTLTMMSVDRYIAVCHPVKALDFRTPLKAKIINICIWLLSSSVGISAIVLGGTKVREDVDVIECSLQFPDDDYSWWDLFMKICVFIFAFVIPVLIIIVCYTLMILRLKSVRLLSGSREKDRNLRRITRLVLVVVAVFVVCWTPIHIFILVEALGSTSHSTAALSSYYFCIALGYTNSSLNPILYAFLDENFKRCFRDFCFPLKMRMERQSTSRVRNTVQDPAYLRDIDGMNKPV
T4 sequence (P41143 whole entry): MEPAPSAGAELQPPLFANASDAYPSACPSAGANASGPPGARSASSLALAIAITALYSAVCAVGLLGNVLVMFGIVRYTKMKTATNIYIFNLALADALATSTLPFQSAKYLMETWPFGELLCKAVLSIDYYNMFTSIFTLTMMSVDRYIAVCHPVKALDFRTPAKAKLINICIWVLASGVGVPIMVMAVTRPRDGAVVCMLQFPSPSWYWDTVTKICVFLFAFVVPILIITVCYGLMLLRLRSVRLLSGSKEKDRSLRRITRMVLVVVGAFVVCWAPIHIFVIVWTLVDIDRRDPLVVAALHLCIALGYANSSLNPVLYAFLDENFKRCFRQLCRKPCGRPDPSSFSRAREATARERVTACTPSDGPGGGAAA
T5 sequence (P35372 whole entry): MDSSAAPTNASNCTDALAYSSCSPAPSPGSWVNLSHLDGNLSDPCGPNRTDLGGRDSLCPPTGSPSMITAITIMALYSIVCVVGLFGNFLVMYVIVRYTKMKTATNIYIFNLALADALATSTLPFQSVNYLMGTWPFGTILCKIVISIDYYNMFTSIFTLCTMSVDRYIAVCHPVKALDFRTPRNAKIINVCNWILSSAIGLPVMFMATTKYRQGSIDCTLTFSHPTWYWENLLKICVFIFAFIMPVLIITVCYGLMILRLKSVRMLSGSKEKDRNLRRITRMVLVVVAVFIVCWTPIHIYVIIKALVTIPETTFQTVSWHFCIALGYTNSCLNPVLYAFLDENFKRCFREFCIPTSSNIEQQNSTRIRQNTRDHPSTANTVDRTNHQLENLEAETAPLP
T8 sequence (Q01196 whole entry, the tested form may be a part): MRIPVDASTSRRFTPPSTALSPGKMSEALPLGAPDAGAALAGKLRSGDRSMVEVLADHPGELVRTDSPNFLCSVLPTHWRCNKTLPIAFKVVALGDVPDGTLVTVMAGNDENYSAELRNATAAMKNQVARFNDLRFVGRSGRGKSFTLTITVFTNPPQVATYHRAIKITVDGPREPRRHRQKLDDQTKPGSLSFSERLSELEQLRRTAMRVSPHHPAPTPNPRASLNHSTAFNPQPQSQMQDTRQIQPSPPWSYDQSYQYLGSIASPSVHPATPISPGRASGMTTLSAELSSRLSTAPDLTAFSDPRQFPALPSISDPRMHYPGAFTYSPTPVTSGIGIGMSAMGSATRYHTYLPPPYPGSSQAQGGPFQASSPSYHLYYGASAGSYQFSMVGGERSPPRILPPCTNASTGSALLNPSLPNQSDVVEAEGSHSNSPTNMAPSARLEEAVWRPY
T8 sequence (Q13951 whole entry, the tested form may be a part): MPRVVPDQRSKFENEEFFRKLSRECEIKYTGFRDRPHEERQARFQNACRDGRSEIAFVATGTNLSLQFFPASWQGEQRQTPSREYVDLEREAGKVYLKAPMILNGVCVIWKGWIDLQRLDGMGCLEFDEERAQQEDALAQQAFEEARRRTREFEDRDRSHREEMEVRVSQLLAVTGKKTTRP
Intestinal-type alkaline phosphatase (Mus musculus, UniProt P24822), sequence (P24822 whole entry): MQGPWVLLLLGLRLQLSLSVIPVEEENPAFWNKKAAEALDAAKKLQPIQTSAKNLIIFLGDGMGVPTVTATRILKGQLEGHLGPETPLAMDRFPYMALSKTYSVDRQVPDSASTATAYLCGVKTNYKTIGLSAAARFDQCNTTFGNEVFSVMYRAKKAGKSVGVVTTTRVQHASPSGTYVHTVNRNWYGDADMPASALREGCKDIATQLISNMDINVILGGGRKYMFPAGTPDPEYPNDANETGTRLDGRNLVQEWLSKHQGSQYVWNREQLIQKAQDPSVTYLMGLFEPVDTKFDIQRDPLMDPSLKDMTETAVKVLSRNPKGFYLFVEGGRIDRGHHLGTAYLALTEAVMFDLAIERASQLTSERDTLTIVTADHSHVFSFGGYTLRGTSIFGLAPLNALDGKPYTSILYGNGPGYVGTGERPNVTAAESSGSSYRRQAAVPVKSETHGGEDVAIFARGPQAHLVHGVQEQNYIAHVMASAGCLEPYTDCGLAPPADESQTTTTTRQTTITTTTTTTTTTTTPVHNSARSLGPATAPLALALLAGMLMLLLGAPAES
Large T antigen, sequence (P03070 whole entry): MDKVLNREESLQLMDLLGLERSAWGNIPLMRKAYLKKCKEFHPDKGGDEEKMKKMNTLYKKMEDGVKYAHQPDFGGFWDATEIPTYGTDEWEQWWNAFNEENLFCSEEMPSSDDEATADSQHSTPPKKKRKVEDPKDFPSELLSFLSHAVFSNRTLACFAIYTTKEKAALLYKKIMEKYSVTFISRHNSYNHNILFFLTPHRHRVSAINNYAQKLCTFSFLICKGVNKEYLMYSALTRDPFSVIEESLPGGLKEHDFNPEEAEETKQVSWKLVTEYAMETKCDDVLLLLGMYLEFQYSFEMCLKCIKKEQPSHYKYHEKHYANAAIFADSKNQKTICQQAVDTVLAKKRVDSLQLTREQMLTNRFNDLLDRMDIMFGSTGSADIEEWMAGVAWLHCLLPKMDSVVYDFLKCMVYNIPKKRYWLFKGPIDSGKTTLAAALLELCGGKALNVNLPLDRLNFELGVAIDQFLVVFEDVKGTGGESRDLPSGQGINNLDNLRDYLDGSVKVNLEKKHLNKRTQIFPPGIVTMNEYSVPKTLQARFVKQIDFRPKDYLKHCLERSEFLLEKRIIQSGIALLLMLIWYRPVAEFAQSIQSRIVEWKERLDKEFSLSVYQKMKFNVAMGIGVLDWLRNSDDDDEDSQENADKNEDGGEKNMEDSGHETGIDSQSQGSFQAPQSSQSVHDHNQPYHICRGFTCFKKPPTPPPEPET
Intestinal-type alkaline phosphatase (Homo sapiens, UniProt P09923), sequence (P09923 whole entry): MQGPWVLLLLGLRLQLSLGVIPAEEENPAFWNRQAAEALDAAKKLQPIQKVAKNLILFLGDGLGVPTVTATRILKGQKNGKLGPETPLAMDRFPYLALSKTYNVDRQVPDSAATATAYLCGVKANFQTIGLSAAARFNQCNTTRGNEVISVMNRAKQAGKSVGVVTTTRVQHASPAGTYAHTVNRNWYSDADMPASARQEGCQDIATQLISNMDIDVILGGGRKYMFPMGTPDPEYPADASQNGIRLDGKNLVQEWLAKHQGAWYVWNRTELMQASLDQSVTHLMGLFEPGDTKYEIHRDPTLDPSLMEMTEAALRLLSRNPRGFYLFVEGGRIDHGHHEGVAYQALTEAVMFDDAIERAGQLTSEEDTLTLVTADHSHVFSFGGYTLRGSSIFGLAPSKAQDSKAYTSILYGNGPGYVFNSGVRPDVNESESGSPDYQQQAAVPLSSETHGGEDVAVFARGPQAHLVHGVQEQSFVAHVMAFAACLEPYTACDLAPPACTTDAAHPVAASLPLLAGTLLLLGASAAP

SMILES: CCOc1ccc(S(=O)(=O)Nc2cc(Sc3nnc[nH]3)c3oc(=O)sc3c2)cc1
- EC50 [1]: 65.8 µM (active)
- EC50 [2]: 14.6 µM (active)
- IC50 (Large T antigen): 20.8 µM (active)
- IC50 [3]: 5.37 µM (active)
- IC50 [4]: > 100 µM (inactive)
- IC50 [5]: > 100 µM (inactive)

SMILES: CCC(C)(C(=O)NC1CCCCC1)N(Cc1ccco1)C(=O)c1ccccn1 (stereo not given)
- IC50 [6]: > 32 µM (inactive)
- EC50 (Mu-type opioid receptor [7]): > 32 µM (inactive)
- EC50 [8]: > 32 µM (inactive)
- EC50 [9]: < 0.5 µM
- EC50 [10]: 0.251 µM
- EC50 [11]: 0.645 µM (active)
- EC50 (Mu-type opioid receptor [12]): > 32 µM (inactive)
- EC50 [13]: > 32 µM (inactive)
- IC50 [14]: > 32 µM (inactive)
- IC50 (Coagulation factor XII): > 50 µM (inactive)
- IC50 (Mu-type opioid receptor [15]): > 32 µM (inactive)
- EC50 [16]: 0.168 µM (active)
- IC50 [17]: > 32 µM (inactive)

SMILES: COc1ccc(Cn2c(SCc3ccc(Br)cc3)nnc2-c2ccccn2)cc1
- EC50 [18]: > 20 µM (inactive)

SMILES: Cc1cc(/C=N/NC(=O)Cn2c3ccccc3c(=O)c3ccccc32)c(C)n1-c1ccc(Cl)cc1
- EC50 (HEK293): 3.28 µM (active)
- IC50 [19]: 4.69 µM (active)
- EC50 [20]: > 35.4 µM (not active)
- IC50 [21]: 11.6 µM (active)
- EC50 [22]: > 35.4 µM (not active)
